Assay results reported in patent US20250171413A1, “ANTIVIRAL INDOLINYL COMPOUNDS AND USES THEREOF” (Gilead Sciences, Inc., priority 2023, published 2025).
Read-outs that look alike come from different tables or passages of the source.

System: HSV-2 virus (MS strain)
Assay: HSV-2 Cellomics Assay (immunofluorescence of HSV protein gD)
Assay type: cell-based
Procedure: Compounds were tested for their ability to inhibit HSV-2 replication by monitoring the expression of the HSV protein gD using a high-throughput immunofluorescence-based assay. 10-dose, 3-fold serial dilutions of compounds were prepared at starting concentrations of 0.2 or 2 mM in 100% DMSO. 250 nl of compounds were spotted in quadruplicates onto black collagen-coated 384-well microplates with clear bottom (Greiner cat #781956) using a Labcyte ECHO acoustic dispenser. The final starting concentration in the assay was either […]. DMSO (no compound) and pritelivir were included on each microplate as negative and positive controls, respectively.
ARPE-19 cells (ATCC cat #CRL-2302) were maintained DMEM/F-12 Glutamax medium (Thermo Fisher Scientific cat #10565018) supplemented with 10% FBS (Corning cat #35-011-CV) and 1% Penicillin-Streptomycin (cat #30-002-CI). Prior to confluence, cells were transferred to a centrifuge tube and spun for 5 minutes at 1000 rpm. Cells were resuspended in assay medium (DMEM/F-12 Glutamax, 2% FBS, 1% Penicillin-Streptomycin) and counted. Cell density was adjusted to 150,000 cells/ml and infected with HSV-2 virus (MS strain, ATCC cat #VR-540) at a MOI of 0.06 in a 50 ml conical tube for 1 hour under constant rocking. Cells were then spun for 5 minutes at 1000 rpm and the media replaced with assay medium containing either 2% FBS or 10% human serum (EMD Millipore cat #S1-100ML). 50 μl of the infection suspension were added into microplate wells that were pre-spotted with compounds (7,500 cells per well). Plates were incubated for 16 hours at 37° C.
Cell culture medium was aspirated using a Biomek Fx and 50 μl of a paraformaldehyde solution (Electron Microscopy Sciences cat #15712-5) diluted to 4% in DPBS (Corning cat #21-031-CM) were added per well. After a 30-minute incubation at room temperature, plates were washed 4 times with 100 μl/well of PBS using a Biotek plate washer. A 1:500 solution of primary antibody (anti-HSV gD, Virusys cat #P1103) was prepared in permeabilization buffer (Invitrogen cat #00-8333-56) and 50 μl were added into wells. After a 1-hour incubation at room temperature, 50 μl of a 1:1000 solution of secondary antibody (Alexa Fluor 488 goat anti-mouse, Thermo Fisher Scientific cat #A11001) and DAPI (Thermo Fisher Scientific cat #62248) in permeabilization buffer were added into wells and plates were incubated in the dark at room temperature for 1 hour. Plates were washed 4 times again and 50 μl of DPBS were added to all wells prior to sealing the plates with a black adhesive seal. Fluorescence was measured on a Cellomics plate reader.
Data analysis was carried out using the Thermo Scientific HCS Studio software. Briefly, cells were identified using the DAPI nuclear stain and thresholds were set to filter cells out based on shape and size. A second threshold based on green fluorescence intensity (detection of HSV-2 gD) was set to identify HSV-2 infected cells. Data was reported as the average fluorescence intensity of HSV-2 infected cells. EC50 values were defined as the compound concentration that caused a 50% decrease in the average fluorescence intensity and was calculated using a sigmoidal dose-response model to generate curve fits.

| SMILES | EC50 (Human alphaherpesvirus 2, HSV-2 (MS strain, MOI 0.06) infected ARPE-19 cells, assay medium containing 2% FBS, 16 hours, read-out: EC50-HSV2-FBS) [nM] | EC50 (Human alphaherpesvirus 2, HSV-2 (MS strain, MOI 0.06) infected ARPE-19 cells, assay medium containing 10% human serum, 16 hours, read-out: EC50-HSV2-10% Human Serum) [nM] | EC50 (Human alphaherpesvirus 2, ARPE-19, read-out: EC50 in HSV-2 Cellomics assay) [nM] |
| --- | --- | --- | --- |
| CCCC(=O)NS(=O)(=O)c1cc2c(cc1F)C[C@@H](C)N2C(=O)[C@@H]1Cc2ccc(-c3ccccn3)cc2C1 [Example 32, N—(((R)-5-fluoro-2-methyl-1-((R)-5-(pyridin-2-yl)-2,3-dihydro-1H-indene-2-carbonyl)indolin-6-yl)sulfonyl)butyramide] | 231 | 2380 | – |
| Cc1nc(N(C)C(=O)Cc2ccc(-c3ccccn3)cc2)sc1S(N)(=O)=O [pritelivir, reference compound] | – | – | 150 |
